Type in all cases: binding
Test [1] has as its target T1, Recombinant human integrin αvβ1 (Homo sapiens, UniProt P05556+P06756).
T1 construct: purchased R&D Systems 6579-AV
The test can be described thus: Solid Phase Receptor Assay (SPRA) for αVβ1 function. Conditions: plate-bound human fibronectin. As for the experimental part: B. Solid Phase Receptor Assay (SPRA) for αVβ1 Function
(§1) Wells were washed 3 times with 150 μL TBS+ and then 150 μL of blocking buffer (TBS+ with 1% bovine serum albumin, Sigma A7906) was added. The plate was incubated for 1 hr at 37° C. and then washed 3× with TBS+ buffer. […] Compounds were diluted to 20 μM and 1 μL was added to each well of the plate according to a standard template with each sample repeated in triplicate. After incubation for two hours at room temperature, the plate was washed 3× with 150 μL of TBS+ buffer. To each well, 50 μL of biotinylated anti-αV antibody (R&D Systems, BAF1219) at 1 μg/mL in TBS+/0.1% BSA were added and the plate covered and incubated for 1 hr at room temperature. After washing the plate 3× with 150 μL of TBS+ buffer, 50 μL of streptavidin-conjugated horseradish peroxidase (R&D Systems, DY998) diluted in TBS+ blocking buffer were added to the wells and the plate incubated for 20 min at room temperature. The plate was washed 3× with TBS+ buffer followed by 50 μL of TMB substrate (Sigma, T4444) added to each well in the dark and the plate incubated for 25 min at room temperature. 25 μL of 1.0 M phosphoric acid was added as a stop solution and the plates were read at 450 nm using a Spectramax plate reader.

Test [2] deals with T2, Recombinant human integrin αVβ5 (Homo sapiens, UniProt P06756+P18084).
T2 construct: purchased R&D Systems 2528-AV
T2 sequence (P06756 31-992 limits assumed): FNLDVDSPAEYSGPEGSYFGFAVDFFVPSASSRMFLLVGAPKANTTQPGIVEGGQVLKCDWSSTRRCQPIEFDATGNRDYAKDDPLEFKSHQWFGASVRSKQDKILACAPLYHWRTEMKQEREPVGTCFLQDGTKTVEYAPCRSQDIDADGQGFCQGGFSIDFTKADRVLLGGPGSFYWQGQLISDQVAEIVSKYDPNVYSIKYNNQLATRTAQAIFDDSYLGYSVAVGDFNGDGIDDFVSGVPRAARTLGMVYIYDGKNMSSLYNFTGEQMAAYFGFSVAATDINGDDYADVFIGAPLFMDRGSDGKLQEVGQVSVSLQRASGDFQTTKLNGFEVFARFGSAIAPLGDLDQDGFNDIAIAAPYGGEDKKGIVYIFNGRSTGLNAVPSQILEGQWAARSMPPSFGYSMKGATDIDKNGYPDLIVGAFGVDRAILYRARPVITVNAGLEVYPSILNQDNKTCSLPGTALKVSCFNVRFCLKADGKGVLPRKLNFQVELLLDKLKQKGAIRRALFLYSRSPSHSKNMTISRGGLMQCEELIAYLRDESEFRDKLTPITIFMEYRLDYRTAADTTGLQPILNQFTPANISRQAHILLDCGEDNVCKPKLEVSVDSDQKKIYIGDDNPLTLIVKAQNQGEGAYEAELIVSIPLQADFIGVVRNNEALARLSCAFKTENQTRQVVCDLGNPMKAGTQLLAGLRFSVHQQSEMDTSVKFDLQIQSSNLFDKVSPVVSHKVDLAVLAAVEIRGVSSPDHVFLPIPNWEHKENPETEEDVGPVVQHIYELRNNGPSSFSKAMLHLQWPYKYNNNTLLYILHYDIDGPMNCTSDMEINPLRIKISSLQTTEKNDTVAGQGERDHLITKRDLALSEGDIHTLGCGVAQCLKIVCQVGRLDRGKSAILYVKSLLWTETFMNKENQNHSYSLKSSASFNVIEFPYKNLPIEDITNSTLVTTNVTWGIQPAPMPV
T2 sequence (P18084 24-719 limits assumed): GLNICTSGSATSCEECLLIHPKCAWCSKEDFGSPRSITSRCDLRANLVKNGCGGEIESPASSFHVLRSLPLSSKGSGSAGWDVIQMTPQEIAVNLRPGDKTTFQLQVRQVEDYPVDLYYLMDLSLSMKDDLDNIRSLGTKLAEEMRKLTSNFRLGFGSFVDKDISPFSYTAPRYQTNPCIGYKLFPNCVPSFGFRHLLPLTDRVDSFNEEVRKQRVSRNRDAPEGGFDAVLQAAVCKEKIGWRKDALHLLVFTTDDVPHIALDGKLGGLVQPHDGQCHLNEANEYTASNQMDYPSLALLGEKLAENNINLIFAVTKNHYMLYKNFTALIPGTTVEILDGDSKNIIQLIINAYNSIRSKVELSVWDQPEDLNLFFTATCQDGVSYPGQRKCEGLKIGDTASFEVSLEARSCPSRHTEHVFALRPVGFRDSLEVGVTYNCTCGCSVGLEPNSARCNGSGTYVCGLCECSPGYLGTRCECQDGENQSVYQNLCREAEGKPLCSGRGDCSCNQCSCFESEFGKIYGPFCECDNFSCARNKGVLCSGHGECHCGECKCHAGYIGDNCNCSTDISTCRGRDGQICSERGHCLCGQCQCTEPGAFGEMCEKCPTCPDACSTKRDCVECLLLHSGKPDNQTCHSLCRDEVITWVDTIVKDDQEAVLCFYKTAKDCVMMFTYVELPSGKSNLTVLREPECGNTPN
The test can be described thus: Solid Phase Receptor Assay (SPRA) for αVβ5 function. Conditions: plate-bound human vitronectin. The protocol: D. Solid Phase Receptor Assay (SPRA) for αVβ5 Function
as §1, with “μM and then 1 μL” for “μM and 1 μL”, “well, 50 μl of biotinylated” for “well, 50 μL of biotinylated”, “BAF1219) at 0.5 μg/mL in” for “BAF1219) at 1 μg/mL in”, “TBS+/0.1% BSA at 0.5 μg/mL were added” for “TBS+/0.1% BSA were added”, “TMB substrate (Sigma T4444) added” for “TMB substrate (Sigma, T4444) added”, “incubated for 5 min at” for “incubated for 25 min at”

Test [3] has as its target T3, Recombinant human integrin αVβ8 (Homo sapiens, UniProt P06756+P26012).
T3 construct: purchased R&D Systems 4135-AV
As to the kind of experiment: Solid Phase Receptor Assay for αVβ8 function. To be noted: plate-bound human LAP; read-out: αVβ8 SPRA IC50. The protocol:
F. Solid Phase Receptor Assay (SFRA) for αVβ8 Function
Wells were washed 3 times with 150 μL TBS+ and then 150 μL of blocking buffer (TBS+ with 1% bovine serum albumin, Sigma A7906) was added. The plate was incubated for 1 hr at 37° C. and then washed 3× with TBS+. […] Compounds were diluted to 20 μM and 1 μL was added to each well of the plate according to a standard template with each sample repeated in triplicate. After incubation for two hours at room temperature, the plate was washed 3× with 150 μL of TBS+. To each well, 50 μL of biotinylated anti-αV antibody (R&D Systems, BAF1219) at 1 μg/mL in TBS+/0.1% BSA were added and the plate was covered and incubated for 1 hr at room temperature. After washing the plate 3× with 150 μL of TBS+ buffer, 50 μL of streptavidin-conjugated horseradish peroxidase (R&D Systems, DY998) diluted in TBS+ blocking buffer were added to the wells and the plate incubated for 20 min at room temperature. The plate was washed 3× with TBS+ followed by 50 μL of TMB substrate (Sigma T4444) added to each well in the dark and the plate incubated for 10 min at room temperature. 25 μL of 1.0 M phosphoric acid was added as a stop solution and the plates were read at 450 nm using a Spectramax plate reader.

For test [4], the target named is T4, Recombinant human integrin αVβ6 (Homo sapiens, UniProt P06756+P18564).
T4 construct: purchased R&D Systems 3817-AV
T4 sequence (P06756 31-992 limits assumed): as the sequence (P06756 31-992 limits assumed) above
T4 sequence (P18564 22-707 limits assumed): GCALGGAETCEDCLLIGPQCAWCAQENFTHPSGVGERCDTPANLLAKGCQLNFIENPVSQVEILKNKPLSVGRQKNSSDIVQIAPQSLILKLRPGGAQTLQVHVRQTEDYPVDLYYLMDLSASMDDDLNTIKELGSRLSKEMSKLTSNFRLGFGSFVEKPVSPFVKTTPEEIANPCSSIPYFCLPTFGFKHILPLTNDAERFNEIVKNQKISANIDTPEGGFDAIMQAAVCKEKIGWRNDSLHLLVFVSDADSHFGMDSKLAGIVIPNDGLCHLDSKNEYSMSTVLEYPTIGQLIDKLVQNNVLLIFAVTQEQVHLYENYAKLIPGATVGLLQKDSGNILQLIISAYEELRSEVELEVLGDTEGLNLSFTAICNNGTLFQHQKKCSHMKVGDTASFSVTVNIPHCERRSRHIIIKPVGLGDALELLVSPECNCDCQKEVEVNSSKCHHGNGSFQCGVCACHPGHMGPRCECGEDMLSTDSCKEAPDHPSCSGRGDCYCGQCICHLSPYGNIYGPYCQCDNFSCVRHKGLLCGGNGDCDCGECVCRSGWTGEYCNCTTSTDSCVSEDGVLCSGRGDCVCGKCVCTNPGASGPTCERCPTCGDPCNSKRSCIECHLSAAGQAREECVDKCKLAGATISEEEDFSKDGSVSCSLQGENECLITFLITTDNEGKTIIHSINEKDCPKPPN
As to the kind of experiment: Solid Phase Receptor Assay (SPRA) for αVβ6 function. To be noted: plate-bound human LAP. The protocol:
E. Solid Phase Receptor Assay (SPRA) for αVβ6 Function
Wells were washed 3 times with 150 μL TBS+, and then 150 μL of blocking buffer (TBS+ with 1% bovine serum albumin, Sigma A7906) was added. The plate was incubated for 1 hr at 37° C., and then washed 3× with TBS+ buffer. […] Compounds were diluted to 20 μM and then 1 μL was added to each well of the plate according to a standard template with each sample repeated in triplicate. After incubation for two hours at room temperature, the plate was washed 3× with 150 μL of TBS+ buffer. To each well, 50 μL of biotinylated anti-αV antibody (R&D Systems, BAF1219) at 0.5 μg/mL in TBS+/0.1% BSA were added and the plate was covered and incubated for 1 hr at room temperature. After washing the plate 3× with 150 μL of TBS+ buffer, 50 μL of streptavidin-conjugated horseradish peroxidase (R&D Systems, DY998) diluted in TBS+ blocking buffer were added to the wells and the plate incubated for 20 min at room temperature. The plate was washed 3× with TBS+ buffer followed by 50 μL of TMB substrate (Sigma T4444) added to each well in the dark and the plate incubated for 10 min at room temperature. 25 μL of 1.0 M phosphoric acid was added as a stop solution and the plates were read at 450 nm using a Spectramax plate reader.

Structures can show the parent of a compound that is named as a salt.

T1 sequence (P06756 31-992 limits assumed): as the sequence (P06756 31-992 limits assumed) above
T1 sequence (P05556 21-728 limits assumed): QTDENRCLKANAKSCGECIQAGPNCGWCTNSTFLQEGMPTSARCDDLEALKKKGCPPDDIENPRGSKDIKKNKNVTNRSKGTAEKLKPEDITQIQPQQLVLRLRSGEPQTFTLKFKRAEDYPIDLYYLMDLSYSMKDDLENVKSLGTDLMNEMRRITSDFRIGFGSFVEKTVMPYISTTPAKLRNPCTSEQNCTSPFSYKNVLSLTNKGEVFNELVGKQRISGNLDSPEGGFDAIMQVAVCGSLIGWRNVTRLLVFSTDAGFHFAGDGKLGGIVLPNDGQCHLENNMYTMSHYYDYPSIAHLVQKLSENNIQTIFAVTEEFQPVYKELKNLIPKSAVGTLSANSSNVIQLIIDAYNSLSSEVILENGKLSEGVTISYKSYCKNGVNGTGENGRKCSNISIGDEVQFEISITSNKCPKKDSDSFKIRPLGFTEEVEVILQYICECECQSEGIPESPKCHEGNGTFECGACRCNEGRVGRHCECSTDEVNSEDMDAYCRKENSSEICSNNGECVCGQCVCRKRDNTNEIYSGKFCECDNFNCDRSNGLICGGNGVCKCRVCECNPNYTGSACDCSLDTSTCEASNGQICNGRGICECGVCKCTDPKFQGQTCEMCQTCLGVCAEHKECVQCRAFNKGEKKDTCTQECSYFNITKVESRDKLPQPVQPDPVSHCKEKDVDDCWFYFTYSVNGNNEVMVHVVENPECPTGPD
T3 sequence (P06756 31-992 limits assumed): as the sequence (P06756 31-992 limits assumed) above
T3 sequence (P26012 43-684 limits assumed): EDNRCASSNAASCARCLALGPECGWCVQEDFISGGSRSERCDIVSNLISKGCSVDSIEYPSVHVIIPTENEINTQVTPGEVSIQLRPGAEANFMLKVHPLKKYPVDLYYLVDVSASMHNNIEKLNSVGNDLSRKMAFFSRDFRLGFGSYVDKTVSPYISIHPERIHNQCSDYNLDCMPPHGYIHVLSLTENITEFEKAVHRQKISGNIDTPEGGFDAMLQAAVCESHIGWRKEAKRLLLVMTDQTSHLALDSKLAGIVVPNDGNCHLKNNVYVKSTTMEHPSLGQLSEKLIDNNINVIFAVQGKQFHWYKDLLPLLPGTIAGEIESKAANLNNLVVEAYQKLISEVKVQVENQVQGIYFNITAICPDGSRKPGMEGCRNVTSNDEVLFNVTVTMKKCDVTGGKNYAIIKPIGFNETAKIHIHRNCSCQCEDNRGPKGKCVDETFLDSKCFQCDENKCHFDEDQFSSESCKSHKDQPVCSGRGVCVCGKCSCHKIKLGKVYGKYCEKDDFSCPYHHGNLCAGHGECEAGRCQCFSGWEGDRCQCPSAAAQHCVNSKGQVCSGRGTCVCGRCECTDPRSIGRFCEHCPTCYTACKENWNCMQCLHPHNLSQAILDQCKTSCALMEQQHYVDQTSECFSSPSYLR

On to `COc1ccc(C(C)(C)C)cc1C(CC(=O)O)Cc1csc(CCCc2ccc3c(n2)NCCC3)n1` (stereo not shown) [Example 28, 3-(5-(tert-butyl)-2-methoxyphenyl)-4-(2-(3-(5,6,7,8-tetrahydro-1,8-naphthyridin-2-yl)propyl)thiazol-4-yl)butanoic acid], for which the IC50 stood at 6 nM in test [1], 440 nM in test [2], 31 nM in test [3] and 310 nM in test [4].

In the case of `Cn1nc(CC(CC(=O)O)c2cc3c(c(C(C)(C)C)c2)OCO3)cc1OCCc1ccc2c(n1)NCCC2` (stereo not shown) [Example 15], the IC50 in test [1] is 3 nM; in test [2] it was 0.2 nM; in test [3], 120 nM; in test [4] it was 60 nM.

For the molecule `COc1cc(C(CC(=O)O)Cc2cc(OCCc3ccc4c(n3)NCCC4)n(C)n2)cc(C23CC4CC(CC(C4)C2)C3)c1OC` (stereo not shown) [Example 14, 3-[3-(1-adamantyl)-4,5-dimethoxy-phenyl]-4-[1-methyl-5-[2-(5,6,7,8-tetrahydro-1,8-naphthyridin-2-yl)ethoxy]pyrazol-3-yl]butanoic acid], the 50% inhibitory concentration (IC50) in test [1] is 9 nM; in test [2], 9 nM; in test [3], 170 nM; in test [4], 170 nM.

As for `COc1ccc(C(F)(F)F)cc1C(CC(=O)O)Cc1csc(CCCc2ccc3c(n2)NCCC3)n1` (stereo not shown) [Example 35, 3-[2-methoxy-5-(trifluoromethyl)phenyl]-4-[2-[3-(5,6,7,8-tetrahydro-1,8-naphthyridin-2-yl)propyl]thiazol-4-yl]butanoic acid], the IC50 in test [1] was 5 nM; in test [2], 69 nM; in test [3], 51 nM; in test [4], 200 nM.

As for `COc1ccc(C(C)(C)O)cc1C(CC(=O)O)Cc1cc(OCCc2ccc3c(n2)NCCC3)n(C)n1` (stereo not shown) [Example 22, 3-(5-(2-hydroxypropan-2-yl)-2-methoxyphenyl)-4-(1-methyl-5-(2-(5,6,7,8-tetrahydro-1,8-naphthyridin-2-yl)ethoxy)-1H-pyrazol-3-yl)butanoic acid], the IC50 turned out to be 3 nM in test [1], 10 nM in test [2], 79 nM in test [3] and 160 nM in test [4].

In the case of `Cn1nc(CC(CC(=O)O)c2cc(C(C)(C)C)cc(C(C)(C)C#N)c2)cc1OCCc1ccc2c(n1)NCCC2` (stereo not shown) [Example 9, 3-[3-tert-butyl-5-(1-cyano-1-methyl-ethyl)phenyl]-4-[1-methyl-5-[2-(5,6,7,8-tetrahydro-1,8-naphthyridin-2-yl)ethoxy]pyrazol-3-yl]butanoic acid], the IC50 in test [1] is 2 nM; in test [2], 32 nM; in test [3] it was 8 nM; in test [4], 150 nM.

On to `Cc1cc(C)n(-c2cccc(C(CC(=O)O)Cc3csc(CCc4ccc5c(n4)NCCC5)n3)c2)n1` (stereo not shown) [Example 38, 3-(3-(3,5-dimethyl-1H-pyrazol-1-yl)phenyl)-4-(2-(2-(5,6,7,8-tetrahydro-1,8-naphthyridin-2-yl)ethyl)thiazol-4-yl)butanoic acid], for which the IC50 in test [1] is 15 nM; in test [2], 0.7 nM; in test [3] it was 2700 nM; in test [4] it was 240 nM.

As for `COc1cc(C(CC(=O)O)Cc2cc(OCCc3ccc4c(n3)NCCC4)n(C)n2)cc(C23CC4CC(CC(C4)C2)C3)c1OCc1ccccc1` (stereo not shown) [Example 13, 3-[3-(1-adamantyl)-4-benzyloxy-5-methoxy-phenyl]-4-[1-methyl-5-[2-(5,6,7,8-tetrahydro-1,8-naphthyridin-2-yl)ethoxy]pyrazol-3-yl]butanoic acid], the IC50 in test [1] was determined as 21 nM; in test [2], 140 nM; in test [3], 540 nM; in test [4], 170 nM.

On to `COCC1(c2ccc(OC)c(C(CC(=O)O)Cc3cc(OCCc4ccc5c(n4)NCCC5)n(C)n3)c2)CCOCC1` (stereo not shown) [Example 45, 3-(2-methoxy-5-(4-(methoxymethyl)tetrahydro-2H-pyran-4-yl)phenyl)-4-(1-methyl-5-(2-(5,6,7,8-tetrahydro-1,8-naphthyridin-2-yl)ethoxy)-1H-pyrazol-3-yl)butanoic acid], for which the IC50 in test [1] worked out at 2.2 nM; in test [2], 1200 nM; in test [3], 1000 nM; in test [4], 4100 nM.

In the case of `Cn1nc(CC(CC(=O)O)c2cc(C(C)(C)C)ccc2C#N)cc1OCCc1ccc2c(n1)NCCC2` (stereo not shown) [Example 18, 3-(5-(tert-butyl)-2-cyanophenyl)-4-(1-methyl-5-(2-(5,6,7,8-tetrahydro-1,8-naphthyridin-2-yl)ethoxy)-1H-pyrazol-3-yl)butanoic acid], the IC50 in test [1] stood at 5 nM; in test [2] it was 4 nM; in test [3] it was 3 nM; in test [4], 12 nM.

For the molecule `COCC1(c2ccc(OC)c([C@H](CC(=O)O)Cc3cc(OCCc4ccc5c(n4)NCCC5)n(C)n3)c2)CCOCC1` [Example 48, (S)-3-(2-methoxy-5-(4-(methoxymethyl)tetrahydro-2H-pyran-4-yl)phenyl)-4-(1-methyl-5-(2-(5,6,7,8-tetrahydro-1,8-naphthyridin-2-yl)ethoxy)-1H-pyrazol-3-yl)butanoic acid], the IC50 turned out to be 2.4 nM in test [1], 770 nM in test [2], 540 nM in test [3] and 2800 nM in test [4].

As to `COc1c(C(C)(C)C)cc(C(CC(=O)O)Cc2csc(CCCc3ccc4c(n3)NCCC4)n2)cc1C(C)(C)C` (stereo not shown) [Example 29, 3-(3,5-di-tert-butyl-4-methoxyphenyl)-4-(2-(3-(5,6,7,8-tetrahydro-1,8-naphthyridin-2-yl)propyl)thiazol-4-yl)butanoic acid], the IC50 in test [1] came out at 7 nM; in test [2], 800 nM; in test [3], 87 nM; in test [4], 450 nM.

With `COc1ccc(C2=CCOCC2)cc1[C@H](CC(=O)O)Cc1csc(CCCc2ccc3c(n2)NCCC3)n1` [Example 37A, (S)-3-(5-(3,6-dihydro-2H-pyran-4-yl)-2-methoxyphenyl)-4-(2-(3-(5,6,7,8-tetrahydro-1,8-naphthyridin-2-yl)propyl)thiazol-4-yl)butanoic acid trifluoroacetate], the IC50 in test [1] came to 0.9 nM; in test [2], 31 nM; in test [3], 43 nM; in test [4], 31 nM.

The term IC50 denotes the concentration that inhibits the measured activity by half.

These data come from patent publication US20210284638A1 (Saint Louis University, priority 2018, published 2021).
